What was measured:
[1] = tested on: H446 human small cell lung cancer (SCLC) cells; assay: Mouse xenograft model, H446 SCLC; assay type: in vivo, mice; settings: 2.8 mg/kg, twice a week via i.p. injection, 52 days
Procedure: Example 10: THSD (ALSD and ELSD, respectively) are tested in vivo in a mouse xenograft model for human lung cancer. The example is essentially performed as described for example 9 with the following modifications: human SCLC H446 cancer cells are used, and the tested agents include two statin conjugates (compounds of formula FId/compound 14 or “DZ2b” and FIId/compound 7 or “DZ2a”, respectively, designated “DZ-SIM-Ester” or “DZ-SIM-Amide” in FIG. 10), and a non-statin conjugate (“DZ-DHA”). SCLC H446 cells (1.5×10^6) are subcutaneously implanted on the bilateral flanks of athymic nude mice at age of 5 weeks. 10 days post cell implantation, mice are treated with DZ1 (2.8 mg/kg), SIM (2 mg/kg), DZ1-SIM-Amide/compound 7 or DZ1-SIM-Ester/compound 14 (4 mg/kg), and DZ1-DHA (4 mg/kg, DZ1-dihydroartemisinin ester “DZ1-DHA”, as shown in FIG. 11), twice a week via i.p. injection. (A) Tumor sizes are measured by caliper every four days during the treatment period of 52 days, and volumes are calculated using formula […] as described in example 9 above. Confidence levels are indicated as *P<0.05, **P<0.01, ***P<0.0005.

[2] = tested on: 22Rv1 cancer cells; assay: Western blot for polyubiquitinated proteins; assay type: cell-based, human; settings: anti-ubiquitin antibody
Procedure: Example 3D: Proteins are denatured and separated as described in example 3C; on the membrane a western blot is performed using an antibody that targets ubiquitin for detection of polyubiquitinated proteins; the probes include a molecular weight marker (“Marker”), DMSO (vehicle which serves as a control), an unconjugated statin (Simvastatin), an unconjugated dye (DZ1), and the THSD (here ALSD of formula FIId, “DZ2a”, compound 7). […] Thus it is shown that THSD prevent the removal of polyubiquitinated proteins by cancer cells through altered autophagic processes which involve defective lysosomal functions.

[3] = tested on: PC3 (PC); assay: MTT cell viability, PC3; assay type: cell-based; settings: Homo sapiens, 48 h / 24 hours, relative IC50
Procedure: Cell culture: In the following examples, unless otherwise specified, all cell lines are purchased from American Type Culture Collection and cultured in American Type Culture Collection (ATCC)-recommended media, with fetal bovine serum (FBS) to a final concentration of 10% and 1×penicillin/streptomycin at 37° C. with 5% CO2 in a cell culture incubator, unless otherwise specified. Unless otherwise specified, culture is 2D. Where culture is 3D, low attachment plates are used, with the same media. C4-2B (parental cell line and drug-resistant cells derived therefrom) are cultured in RPMI-1640 with 10% FBS. MDVR cells (an Enzalutamide-resistant variety of C4-2B prostate cancer cells formed as described in Example 4 below) are cultured as indicated for the parental C4-2B cells. 22RV1 Prostate Cancer (PC) cells (ATCC® CRL-2505™, a human prostate carcinoma cell line of epithelial morphology) are cultured in RPMI-1640 with 10% FBS. A549 cells (ATCC® CCL-185™, a human lung carcinoma cell line of epithelial morphology) are cultured in F-12K medium with 10% FBS. A549/DDP cells (Cells were described in DOI: 10.3892/mmr.2014.2163 and in doi: 10.7150/jca.19426; cisplatin resistant cells may be established from exposing parental A549 cells to cisplatin for an extended time). MDR A549/cisplatin lung adenocarcinoma cell line, drug resistant) are cultured in F-12K medium with 10% FBS. […]

IC50 [3] | SMILES | mean tumor volume / growth inhibition [1] | ubiquitin signal (polyubiquitinated proteins) [2]
– | CC1(C)C(/C=C/C2=C(Cl)C(=C/C=C3/N(CCCCCC(=O)O)c4ccccc4C3(C)C)/CCC2)=[N+](CCCCS(=O)(=O)[O-])c2ccccc21 [DZ1] | steep increase in tumor volume | much weaker signals and less of a smear
14.8 µM | CCC(C)(C)C(=O)O[C@H]1C[C@@H](C)C=C2C=C[C@H](C)[C@H](CC[C@@H]3C[C@@H](O)CC(=O)O3)[C@H]21 [Simvastatin] | – | –
